The record followed here is ChEMBL document CHEMBL3046887, “Microwave-irradiated synthesis and antimicrobial activity of 2-phenyl-7-substitutedalkyl/arylaminoquinoline-4-carboxylic acid derivatives” (2010).

The source made the active and inactive calls. The calls are words filed in the database; no cut-off is given here.

Format in all cases: functional
Assay [1] deals with Pseudomonas oleovorans. The assay is described as follows: Antibacterial activity against Pseudomonas oleovorans MTCC 617 at 10 ug/well after 24 hr by agar well diffusion method. Conditions: Ectopseudomonas oleovorans; for zone of inhibition at 10 µg/disc: MTCC 617, 24 h, read-out: DIZ. On the technique in general: Agar diffusion results depend on both activity and mobility in agar.

In assay [2] the test system is Pseudomonas aeruginosa. In words: Antibacterial activity against Pseudomonas aeruginosa MTCC 741 at 10 ug/well after 24 hr by agar well diffusion method. The following applies: for zone of inhibition at 10 µg/disc: MTCC 741, 24 h, read-out: DIZ.
Assay [3] concerns Enterococcus faecalis. In words: Antibacterial activity against Enterococcus faecalis MTCC 439 at 10 ug/well after 24 hr by agar well diffusion method. The following applies: for zone of inhibition at 10 µg/disc: MTCC 439, 24 h, read-out: DIZ.
In assay [4] the test system is Klebsiella pneumoniae. In words: Antibacterial activity against Klebsiella pneumoniae MTCC 109 at 10 ug/well after 24 hr by agar well diffusion method. Conditions: for zone of inhibition at 10 µg/disc: MTCC 109, 24 h, read-out: DIZ.
In assay [5] the test system is Escherichia coli. In words: Antibacterial activity against Escherichia coli MTCC 1652 at 10 ug/well after 24 hr by agar well diffusion method. Conditions: for zone of inhibition at 10 µg/disc: MTCC 1652, 24 h, read-out: DIZ.
Assay [6] concerns Streptococcus pyogenes. The assay is described as follows: Antibacterial activity against Streptococcus pyogenes MTCC 442 at 10 ug/well after 24 hr by agar well diffusion method. The following applies: for zone of inhibition at 10 µg/disc: MTCC 442, 24 h, read-out: DIZ.
Assay [7] relates to Bacillus pumilus. In words: Antibacterial activity against Bacillus pumilus MTCC 1640 at 10 ug/well after 24 hr by agar well diffusion method. The following applies: for zone of inhibition at 10 µg/disc: MTCC 1640, 24 h, read-out: DIZ.
Assay [8] has as its system Bacillus cereus. In words: Antibacterial activity against Bacillus cereus MTCC 430 at 10 ug/well after 24 hr by agar well diffusion method. The following applies: for zone of inhibition at 10 µg/disc: MTCC 430, 24 h, read-out: DIZ.
For assay [9], the system named is Bacillus subtilis. The assay is described as follows: Antibacterial activity against Bacillus subtilis MTCC 2397 at 10 ug/well after 24 hr by agar well diffusion method. The following applies: for zone of inhibition at 10 µg/disc: MTCC 2397, 24 h, read-out: DIZ.
The subject of assay [10] is Staphylococcus aureus. In words: Antibacterial activity against Staphylococcus aureus MTCC 737 at 10 ug/well after 24 hr by agar well diffusion method. The following applies: for zone of inhibition at 10 µg/disc: MTCC 737, 24 h, read-out: DIZ.
Assay [11] relates to Pseudomonas aeruginosa. The assay is described as follows: Antibacterial activity against Pseudomonas aeruginosa MTCC 741 after 24 hr by agar dilution method. (In agar dilution the substance is mixed into plates at graded concentrations.)
For assay [12], the system named is Streptococcus pyogenes. In words: Antibacterial activity against Streptococcus pyogenes MTCC 442 after 24 hr by agar dilution method.

As for `O=C(O)c1cc(-c2ccccc2)nc2cc(Nc3ccc([N+](=O)[O-])cc3)ccc12`, the zone of inhibition at 10 µg/disc stood at 8 mm in assay [1]; 3 mm in [3]; 12 mm in [5]; 2 mm in [6]; 11 mm in assay [7]; 9 mm in assay [8]. For the same compound, the zone of inhibition at 10 µg/disc was 5 mm in assay [9] and 7 mm in assay [10]. Further, the “diameter of the inhibition zone (DIZ)” value in assay [2] and in assay [4] was “inactive” each time.

For `NC(=S)Nc1ccc2c(C(=O)O)cc(-c3ccccc3)nc2c1`, the zone of inhibition at 10 µg/disc stood at 7 mm in assay [1]; 12 mm in assay [2]; 9 mm in assay [3]; 5 mm in assay [5]; 5 mm in assay [6]; 3 mm in assay [7]. For the same compound, the zone of inhibition at 10 µg/disc in [8] was 5 mm; in assay [10] it was 9 mm. Further, the “diameter of the inhibition zone (DIZ)” value in assay [4] and in assay [9] was “inactive” throughout.

Turning to `O=C(O)c1cc(-c2ccccc2)nc2cc(Nn3cnnc3)ccc12`, the zone of inhibition at 10 µg/disc came to 4 mm in assay [1]; 3 mm in assay [3]; 4 mm in assay [4]; 3 mm in assay [5]; 2 mm in assay [7]; 3 mm in assay [8]. Moreover, in assay [10], the zone of inhibition at 10 µg/disc is 2 mm. Also, the “diameter of the inhibition zone (DIZ)” value in [2], in [6] and in [9] was “inactive” in each case.

Regarding `O=C(O)c1cc(-c2ccccc2)nc2cc(N3CCNCC3)ccc12`, the zone of inhibition at 10 µg/disc in assay [1] came out at 11 mm; in [2], 4 mm; in assay [3] it was 7 mm; in [4], 6 mm; in [5], 10 mm; in assay [6], 7 mm. Moreover, the zone of inhibition at 10 µg/disc in assay [7] was 5 mm; in [8] it was 5 mm; in assay [9] it was 2 mm; in assay [10] it was 4 mm.

As for `O=C(O)CNc1ccc2c(C(=O)O)cc(-c3ccccc3)nc2c1`, the zone of inhibition at 10 µg/disc turned out to be 8 mm in assay [1]; 4 mm in [2]; 7 mm in [3]; 5 mm in [4]; 2 mm in assay [5]; 5 mm in assay [6]. For the same compound, the results for the zone of inhibition at 10 µg/disc in assay [7] and in assay [8] were 2 mm and 4 mm, respectively. Further, the “diameter of the inhibition zone (DIZ)” value in assay [9] and in [10] was “inactive” each time.

For `O=C(O)c1cc(-c2ccccc2)nc2cc(Nc3nccs3)ccc12`, the MIC was 3 µg in assay [11] and 5 µg in assay [12]. Further, the zone of inhibition at 10 µg/disc in assay [1] amounted to 13 mm; in assay [2], 15 mm; in assay [3], 12 mm; in assay [4], 5 mm; in assay [5], 7 mm; in [6], 13 mm. Besides, the zone of inhibition at 10 µg/disc was found to be 12 mm in assay [7], 13 mm in assay [8], 9 mm in assay [9] and 10 mm in assay [10].

On to `NC(=O)Nc1ccc2c(C(=O)O)cc(-c3ccccc3)nc2c1`, for which the zone of inhibition at 10 µg/disc came out at 9 mm in [1]; 9 mm in [2]; 6 mm in [3]; 6 mm in assay [4]; 7 mm in [5]; 9 mm in [6]. Further, the zone of inhibition at 10 µg/disc came out at 6 mm in assay [7], 10 mm in assay [8], 9 mm in [9] and 9 mm in [10].

On to `NS(=O)(=O)c1ccc(Nc2ccc3c(C(=O)O)cc(-c4ccccc4)nc3c2)cc1`, for which the zone of inhibition at 10 µg/disc in [1] amounted to 11 mm; in assay [2] it was 4 mm; in [3], 5 mm; in assay [5], 8 mm; in assay [6] it was 5 mm; in assay [7] it was 2 mm. For the same compound, the zone of inhibition at 10 µg/disc was 5 mm in assay [8], 5 mm in assay [9] and 9 mm in assay [10]. Besides, in [4], the “diameter of the inhibition zone (DIZ)” value was “inactive”.

`O=C(O)c1cc(-c2ccccc2)nc2cc(Nc3ccccc3)ccc12`: the figures for the MIC in assay [11] and in [12] were 9 µg and 4 µg, respectively. Further, the zone of inhibition at 10 µg/disc in assay [1] was found to be 12 mm; in assay [2], 4 mm; in assay [3], 9 mm; in [4], 5 mm; in assay [5] it was 10 mm; in assay [6], 7 mm. In addition, the zone of inhibition at 10 µg/disc in assay [7] was 5 mm; in assay [8], 10 mm; in [9], 9 mm; in assay [10], 8 mm.

For `COc1ccc(Nc2ccc3c(C(=O)O)cc(-c4ccccc4)nc3c2)cc1`, the zone of inhibition at 10 µg/disc came to 5 mm in [1]; 8 mm in assay [2]; 8 mm in assay [3]; 3 mm in assay [4]; 3 mm in assay [5]; 5 mm in assay [6]. Moreover, the zone of inhibition at 10 µg/disc came to 3 mm in assay [7], 4 mm in assay [8], 4 mm in assay [9] and 2 mm in [10].

As to GENTAMICIN, the inhibition zone (IZ) is 19 mm in assay [1]; 19 mm in [2]; 18 mm in [3]; 16 mm in assay [4]; 16 mm in [5]; 17 mm in assay [6]. The inhibition zone (IZ) turned out to be 17 mm in assay [7], 17 mm in assay [8], 19 mm in assay [9] and 16 mm in assay [10].

For `CC1COc2c(N3CCN(C)CC3)c(F)cc3c(=O)c(C(=O)O)cn1c23` (centres undefined) [OFLOXACIN], the zone of inhibition at 10 µg/disc in assay [1] worked out at 17 mm; in assay [2], 16 mm; in assay [3] it was 16 mm; in [4], 19 mm; in assay [5] it was 17 mm; in assay [6] it was 17 mm. The zone of inhibition at 10 µg/disc amounted to 17 mm in assay [7], 16 mm in [8], 17 mm in assay [9] and 16 mm in assay [10].

For the compound `Cc1ccc(Nc2ccc3c(C(=O)O)cc(-c4ccccc4)nc3c2)cc1`, the zone of inhibition at 10 µg/disc in [1] worked out at 8 mm; in [2], 3 mm; in assay [3] it was 9 mm; in assay [4] it was 3 mm; in assay [5] it was 8 mm; in assay [6], 7 mm. In addition, the zone of inhibition at 10 µg/disc in assay [7] is 9 mm; in [8], 6 mm; in [9] it was 6 mm; in assay [10], 5 mm.

For `O=C(O)c1cc(-c2ccccc2)nc2cc(Cl)ccc12`, the zone of inhibition at 10 µg/disc in assay [1] was 6 mm; in [2], 2 mm; in assay [3], 7 mm; in assay [4] it was 3 mm; in assay [5], 7 mm; in [6] it was 4 mm. In addition, the zone of inhibition at 10 µg/disc in assay [7] amounted to 8 mm; in [8] it was 4 mm; in assay [9], 5 mm. For the same compound, in assay [10], the “diameter of the inhibition zone (DIZ)” value was “inactive”.

For `O=C(O)c1cc(-c2ccccc2)nc2cc(Nc3ccncc3)ccc12`, the zone of inhibition at 10 µg/disc is 4 mm in [1]; 5 mm in assay [2]; 7 mm in assay [3]; 4 mm in assay [4]; 4 mm in assay [5]; 6 mm in assay [7]. Further, the zone of inhibition at 10 µg/disc was 5 mm in assay [8], 5 mm in [9] and 3 mm in assay [10]. For the same compound, the “diameter of the inhibition zone (DIZ)” value in assay [6] is “inactive”.
